Source: PMC7265341, “Quantifying CDK inhibitor selectivity in live cells” (Nature Communications, 2020)
Like-named read-outs stand apart in the source and are kept apart here.

Tests used:
CDK13/Cyclin K = CDK13/Cyclin K (Homo sapiens, UniProt Q14004); experiment: NanoBRET live-cell target engagement, CDK13-NanoLuc/Cyclin K in HEK-293; format: binding; conditions: CDK13/K, read-out: Inhibition at 10µM (%)
CDK15/Cyclin Y = CDK15/Cyclin Y (Homo sapiens, UniProt Q96Q40); experiment: NanoBRET live-cell target engagement, NanoLuc-CDK15/Cyclin Y in HEK-293; format: binding; conditions: read-out: Inhibition at 10µM (%), CDK15/Y
CDK16/Cyclin Y = CDK16/Cyclin Y (Homo sapiens, UniProt Q00536); experiment: NanoBRET live-cell target engagement, CDK16-NanoLuc/Cyclin Y in HEK-293; format: binding; conditions: read-out: Inhibition at 10µM (%), CDK16/Y
CDK10/Cyclin L2 = CDK10/Cyclin L2 (Homo sapiens, UniProt Q15131); experiment: NanoBRET live-cell target engagement, CDK10-NanoLuc/Cyclin L2 in HEK-293; conditions: read-out: Inhibition at 10µM (%), CDK10/L2
Sequence of CDK10/Cyclin L2 (Q15131 whole entry): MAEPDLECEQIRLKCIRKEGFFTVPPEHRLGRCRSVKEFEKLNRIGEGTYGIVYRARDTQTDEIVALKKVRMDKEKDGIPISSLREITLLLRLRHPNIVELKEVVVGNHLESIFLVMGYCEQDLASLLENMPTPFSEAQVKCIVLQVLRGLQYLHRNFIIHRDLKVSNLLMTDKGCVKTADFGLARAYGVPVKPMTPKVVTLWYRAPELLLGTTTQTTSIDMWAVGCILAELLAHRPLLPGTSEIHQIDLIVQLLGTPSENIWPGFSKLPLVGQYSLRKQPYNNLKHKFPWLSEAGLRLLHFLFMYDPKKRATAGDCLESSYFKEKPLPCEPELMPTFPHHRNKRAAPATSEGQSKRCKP

CDK14/Cyclin Y = CDK14/Cyclin Y (Homo sapiens, UniProt O94921); experiment: NanoBRET live-cell target engagement, CDK14-NanoLuc/Cyclin Y in HEK-293; format: binding; conditions: read-out: Inhibition at 10µM (%), CDK14/Y
Sequence of CDK14/Cyclin Y (O94921 whole entry): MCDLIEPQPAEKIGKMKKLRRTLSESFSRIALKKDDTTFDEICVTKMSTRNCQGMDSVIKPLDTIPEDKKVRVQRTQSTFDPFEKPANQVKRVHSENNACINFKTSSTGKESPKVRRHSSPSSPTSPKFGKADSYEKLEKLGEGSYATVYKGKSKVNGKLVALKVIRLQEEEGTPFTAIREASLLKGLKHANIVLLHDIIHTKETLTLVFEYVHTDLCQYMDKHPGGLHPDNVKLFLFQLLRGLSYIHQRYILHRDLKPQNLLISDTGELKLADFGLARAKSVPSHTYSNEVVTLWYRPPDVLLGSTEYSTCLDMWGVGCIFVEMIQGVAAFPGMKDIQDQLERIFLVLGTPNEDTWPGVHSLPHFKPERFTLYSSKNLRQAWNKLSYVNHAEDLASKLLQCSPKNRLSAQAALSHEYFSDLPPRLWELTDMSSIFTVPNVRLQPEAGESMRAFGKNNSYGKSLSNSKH
Sequence of CDK14/Cyclin Y (Q8ND76 whole entry partner): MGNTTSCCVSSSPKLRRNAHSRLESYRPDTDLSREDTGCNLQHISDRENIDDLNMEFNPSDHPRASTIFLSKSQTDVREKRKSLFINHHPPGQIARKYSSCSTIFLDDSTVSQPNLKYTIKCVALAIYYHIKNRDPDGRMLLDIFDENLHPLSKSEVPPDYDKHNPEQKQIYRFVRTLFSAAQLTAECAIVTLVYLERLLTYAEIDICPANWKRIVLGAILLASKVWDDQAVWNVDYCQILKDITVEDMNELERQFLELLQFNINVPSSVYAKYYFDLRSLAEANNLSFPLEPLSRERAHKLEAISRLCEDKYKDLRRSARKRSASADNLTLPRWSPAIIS

CDK4/Cyclin D1 = CDK4/Cyclin D1 (Homo sapiens, UniProt P11802); experiment: NanoBRET live-cell target engagement, NanoLuc-CDK4/Cyclin D1 in HEK-293; format: binding; conditions: CDK4/D1, read-out: Inhibition at 10µM (%)
Sequence of CDK4/Cyclin D1 (P11802 whole entry): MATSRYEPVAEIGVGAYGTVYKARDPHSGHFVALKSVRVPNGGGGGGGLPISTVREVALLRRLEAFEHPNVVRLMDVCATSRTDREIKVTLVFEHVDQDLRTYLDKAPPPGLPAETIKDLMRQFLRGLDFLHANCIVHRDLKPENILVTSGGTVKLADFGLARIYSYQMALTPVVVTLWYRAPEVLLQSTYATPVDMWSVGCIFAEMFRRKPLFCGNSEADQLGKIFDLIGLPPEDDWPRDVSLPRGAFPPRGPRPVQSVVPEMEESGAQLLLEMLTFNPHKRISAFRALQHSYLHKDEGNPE
Sequence of CDK4/Cyclin D1 (P24385 whole entry partner): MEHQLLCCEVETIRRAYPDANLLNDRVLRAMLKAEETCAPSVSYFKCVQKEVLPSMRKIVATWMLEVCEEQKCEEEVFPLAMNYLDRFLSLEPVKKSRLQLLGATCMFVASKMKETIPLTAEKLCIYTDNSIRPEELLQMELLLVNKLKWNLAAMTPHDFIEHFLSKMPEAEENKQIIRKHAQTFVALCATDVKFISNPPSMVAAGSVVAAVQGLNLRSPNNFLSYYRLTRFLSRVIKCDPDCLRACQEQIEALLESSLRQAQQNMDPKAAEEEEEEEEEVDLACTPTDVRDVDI

CDK17/Cyclin Y = CDK17/Cyclin Y (Homo sapiens, UniProt Q00537); experiment: NanoBRET live-cell target engagement, CDK17-NanoLuc/Cyclin Y in HEK-293; format: binding; conditions: read-out: Inhibition at 10µM (%), CDK17/Y
CDK6/Cyclin D1 = CDK6/Cyclin D1 (Homo sapiens, UniProt Q00534); experiment: NanoBRET live-cell target engagement, NanoLuc-CDK6/Cyclin D1 in HEK-293; format: binding; conditions: CDK6/D1, read-out: Inhibition at 10µM (%)
Sequence of CDK6/Cyclin D1 (Q00534 whole entry): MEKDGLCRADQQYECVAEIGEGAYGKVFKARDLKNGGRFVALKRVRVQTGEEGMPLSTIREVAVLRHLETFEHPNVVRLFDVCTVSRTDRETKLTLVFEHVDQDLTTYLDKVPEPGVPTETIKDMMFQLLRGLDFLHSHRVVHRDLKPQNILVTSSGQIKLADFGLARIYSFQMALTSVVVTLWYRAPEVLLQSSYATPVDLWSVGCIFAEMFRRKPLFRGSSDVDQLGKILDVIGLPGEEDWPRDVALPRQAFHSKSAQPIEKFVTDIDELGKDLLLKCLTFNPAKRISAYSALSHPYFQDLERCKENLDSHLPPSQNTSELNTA
Sequence of CDK6/Cyclin D1 (P24385 whole entry partner): as the sequence (P24385 whole entry partner) above

CDK11B/Cyclin L2 = CDK11B/Cyclin L2 (Homo sapiens, UniProt P21127); experiment: NanoBRET live-cell target engagement, CDK11B-NanoLuc/Cyclin L2 in HEK-293; format: binding; conditions: read-out: Inhibition at 10µM (%), CDK11b/L2
Sequence of CDK11B/Cyclin L2 (P21127 1-782 isoform P21127-2): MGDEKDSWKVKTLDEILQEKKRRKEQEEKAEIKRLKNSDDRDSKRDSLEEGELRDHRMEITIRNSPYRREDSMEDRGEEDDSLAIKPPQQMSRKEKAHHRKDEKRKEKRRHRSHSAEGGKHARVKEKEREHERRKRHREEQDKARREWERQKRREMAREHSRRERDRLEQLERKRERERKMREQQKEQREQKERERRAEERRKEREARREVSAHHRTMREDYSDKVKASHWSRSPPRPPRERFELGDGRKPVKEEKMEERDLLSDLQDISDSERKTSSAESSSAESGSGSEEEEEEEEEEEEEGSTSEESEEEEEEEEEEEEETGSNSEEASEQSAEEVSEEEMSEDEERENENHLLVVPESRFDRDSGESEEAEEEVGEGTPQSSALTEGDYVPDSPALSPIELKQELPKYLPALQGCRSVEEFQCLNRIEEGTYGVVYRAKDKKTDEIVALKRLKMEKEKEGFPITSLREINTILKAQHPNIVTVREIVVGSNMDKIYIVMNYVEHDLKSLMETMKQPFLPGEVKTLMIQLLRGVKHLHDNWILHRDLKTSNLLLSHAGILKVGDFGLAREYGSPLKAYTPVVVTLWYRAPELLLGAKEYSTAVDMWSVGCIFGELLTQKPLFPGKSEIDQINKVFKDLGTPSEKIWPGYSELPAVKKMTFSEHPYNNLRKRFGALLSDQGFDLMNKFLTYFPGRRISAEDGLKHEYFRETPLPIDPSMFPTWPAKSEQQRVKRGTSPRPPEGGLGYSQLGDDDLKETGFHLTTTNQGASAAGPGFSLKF

CDK9/Cyclin K = CDK9/Cyclin K (Homo sapiens, UniProt P50750); experiment: NanoBRET live-cell target engagement, NanoLuc-CDK9/Cyclin K in HEK-293; format: binding; conditions: CDK9/K, read-out: Inhibition at 10µM (%)
CDK1/Cyclin E1 = CDK1/Cyclin E1 (Homo sapiens, UniProt P06493); experiment: NanoBRET live-cell target engagement, CDK1-NanoLuc/Cyclin E1 in HEK-293; format: binding; conditions: CDK1/E1, read-out: Inhibition at 10µM (%)
CDK18/Cyclin Y = CDK18/Cyclin Y (Homo sapiens, UniProt Q07002); experiment: NanoBRET live-cell target engagement, CDK18-NanoLuc/Cyclin Y in HEK-293; format: binding; conditions: read-out: Inhibition at 10µM (%), CDK18/Y
Sequence of CDK18/Cyclin Y (Q07002 whole entry): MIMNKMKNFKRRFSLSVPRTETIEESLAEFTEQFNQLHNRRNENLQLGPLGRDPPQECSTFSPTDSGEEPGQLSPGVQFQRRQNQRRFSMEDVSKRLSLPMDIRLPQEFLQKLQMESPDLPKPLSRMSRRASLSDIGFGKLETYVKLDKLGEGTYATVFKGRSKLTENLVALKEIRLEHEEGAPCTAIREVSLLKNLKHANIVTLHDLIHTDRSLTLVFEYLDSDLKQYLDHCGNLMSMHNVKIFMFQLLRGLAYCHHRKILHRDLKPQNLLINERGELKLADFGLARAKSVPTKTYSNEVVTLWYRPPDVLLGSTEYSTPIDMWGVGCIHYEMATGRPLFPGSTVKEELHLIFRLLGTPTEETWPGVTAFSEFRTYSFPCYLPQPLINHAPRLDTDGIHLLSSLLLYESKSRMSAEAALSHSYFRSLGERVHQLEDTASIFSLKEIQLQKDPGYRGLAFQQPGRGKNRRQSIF
Sequence of CDK18/Cyclin Y (Q8ND76 whole entry partner): as the sequence (Q8ND76 whole entry partner) above

CDK19/Cyclin C = CDK19/Cyclin C (Homo sapiens, UniProt Q9BWU1); experiment: NanoBRET live-cell target engagement, NanoLuc-CDK19/Cyclin C in HEK-293; conditions: read-out: Inhibition at 10µM (%), CDK19/C
Sequence of CDK19/Cyclin C (Q9BWU1 whole entry): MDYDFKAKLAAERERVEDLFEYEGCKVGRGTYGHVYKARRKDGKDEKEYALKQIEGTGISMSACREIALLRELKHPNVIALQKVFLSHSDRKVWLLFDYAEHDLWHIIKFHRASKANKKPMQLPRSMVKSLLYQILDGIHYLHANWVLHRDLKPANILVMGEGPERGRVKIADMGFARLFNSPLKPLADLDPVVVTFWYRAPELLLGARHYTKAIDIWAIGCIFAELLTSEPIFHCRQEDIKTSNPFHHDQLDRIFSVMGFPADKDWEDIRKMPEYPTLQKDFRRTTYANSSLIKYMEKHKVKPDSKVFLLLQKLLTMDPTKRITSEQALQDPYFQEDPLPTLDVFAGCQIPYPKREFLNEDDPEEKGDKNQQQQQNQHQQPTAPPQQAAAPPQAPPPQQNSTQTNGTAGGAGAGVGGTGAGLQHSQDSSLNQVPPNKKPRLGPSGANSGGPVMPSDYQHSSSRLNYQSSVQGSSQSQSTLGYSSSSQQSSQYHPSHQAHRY
Sequence of CDK19/Cyclin C (P24863 whole entry partner): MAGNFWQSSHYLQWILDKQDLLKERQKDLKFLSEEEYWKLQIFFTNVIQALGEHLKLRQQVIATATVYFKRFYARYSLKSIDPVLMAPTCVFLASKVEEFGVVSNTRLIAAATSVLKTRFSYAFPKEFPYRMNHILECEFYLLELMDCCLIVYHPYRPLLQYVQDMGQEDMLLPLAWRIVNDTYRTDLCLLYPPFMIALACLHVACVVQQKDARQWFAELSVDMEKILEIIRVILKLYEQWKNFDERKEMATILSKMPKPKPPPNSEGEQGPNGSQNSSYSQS

CDK20/Cyclin H = CDK20/Cyclin H (Homo sapiens, UniProt Q8IZL9); experiment: NanoBRET live-cell target engagement, NanoLuc-CDK20/Cyclin H in HEK-293; format: binding; conditions: read-out: Inhibition at 10µM (%), CDK20/H
CDK11A/Cyclin L2 = molecular target: T1, CDK11A/Cyclin L2 (Homo sapiens, UniProt Q9UQ88); experiment: NanoBRET live-cell target engagement, CDK11A-NanoLuc/Cyclin L2 in HEK-293; format: binding; conditions: read-out: Inhibition at 10µM (%), CDK11a/L2
T1 sequence (Q9UQ88 1-783): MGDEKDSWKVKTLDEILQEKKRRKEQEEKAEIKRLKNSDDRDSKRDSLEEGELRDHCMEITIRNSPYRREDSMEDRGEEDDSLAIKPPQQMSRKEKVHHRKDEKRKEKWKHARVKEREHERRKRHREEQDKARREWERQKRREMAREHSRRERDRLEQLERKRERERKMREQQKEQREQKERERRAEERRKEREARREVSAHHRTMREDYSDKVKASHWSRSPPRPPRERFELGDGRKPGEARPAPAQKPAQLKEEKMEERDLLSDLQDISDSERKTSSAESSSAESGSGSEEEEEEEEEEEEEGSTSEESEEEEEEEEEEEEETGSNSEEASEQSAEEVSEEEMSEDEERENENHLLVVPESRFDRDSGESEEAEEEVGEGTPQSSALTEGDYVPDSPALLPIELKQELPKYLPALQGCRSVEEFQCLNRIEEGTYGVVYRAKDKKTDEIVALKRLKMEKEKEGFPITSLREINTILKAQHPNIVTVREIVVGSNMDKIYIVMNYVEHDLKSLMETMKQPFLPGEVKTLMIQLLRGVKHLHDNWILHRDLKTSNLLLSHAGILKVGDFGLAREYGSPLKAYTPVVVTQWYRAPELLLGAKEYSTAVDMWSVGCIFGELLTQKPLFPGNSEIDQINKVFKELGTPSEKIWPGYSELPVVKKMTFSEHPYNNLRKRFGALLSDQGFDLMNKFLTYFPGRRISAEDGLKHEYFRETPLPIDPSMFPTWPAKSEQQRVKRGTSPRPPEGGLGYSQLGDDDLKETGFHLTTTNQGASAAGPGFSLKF

CDK12/Cyclin K = CDK12/Cyclin K (Homo sapiens, UniProt Q9NYV4); experiment: NanoBRET live-cell target engagement, CDK12-NanoLuc/Cyclin K in HEK-293; format: binding; conditions: read-out: Inhibition at 10µM (%), CDK12/K
CDK5/CDK5R1 = CDK5/CDK5R1 (Homo sapiens, UniProt Q00535); experiment: NanoBRET live-cell target engagement, CDK5-NanoLuc/CDK5R1 in HEK-293; format: binding; conditions: CDK5/CDK5R1, read-out: Inhibition at 10µM (%)
CDK8/Cyclin C = CDK8/Cyclin C (Homo sapiens, UniProt P49336); experiment: NanoBRET live-cell target engagement, NanoLuc-CDK8/Cyclin C in HEK-293; format: binding; conditions: CDK8/C, read-out: Inhibition at 10µM (%)
Sequence of CDK8/Cyclin C (P49336 whole entry): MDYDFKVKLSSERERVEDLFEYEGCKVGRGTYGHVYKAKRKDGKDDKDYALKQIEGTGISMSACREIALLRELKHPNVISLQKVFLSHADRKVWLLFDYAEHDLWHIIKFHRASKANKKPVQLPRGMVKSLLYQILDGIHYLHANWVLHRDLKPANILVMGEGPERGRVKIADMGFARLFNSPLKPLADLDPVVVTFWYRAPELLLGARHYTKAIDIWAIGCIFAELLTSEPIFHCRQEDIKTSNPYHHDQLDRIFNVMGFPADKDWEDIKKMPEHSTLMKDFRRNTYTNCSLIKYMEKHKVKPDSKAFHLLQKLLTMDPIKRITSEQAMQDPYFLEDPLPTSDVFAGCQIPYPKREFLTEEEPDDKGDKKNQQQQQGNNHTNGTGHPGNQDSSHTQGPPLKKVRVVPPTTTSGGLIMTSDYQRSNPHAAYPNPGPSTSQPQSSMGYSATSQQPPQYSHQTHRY
Sequence of CDK8/Cyclin C (P24863 whole entry partner): as the sequence (P24863 whole entry partner) above

CDK2/Cyclin E1 = CDK2/Cyclin E1 (Homo sapiens, UniProt P24941); experiment: NanoBRET live-cell target engagement, CDK2-NanoLuc/Cyclin E1 in HEK-293; format: binding; conditions: CDK2/E1, read-out: Inhibition at 10µM (%)

SMILES: COc1ccccc1-c1cc(Nc2cccc(CS(N)(=O)=O)c2)ncn1 [LDC000067]
- inhibition at 10 µM (CDK13/Cyclin K; average): 10.2%
- inhibition at 10 µM (CDK13/Cyclin K; experiment 1): 7.7%
- inhibition at 10 µM (CDK13/Cyclin K; experiment 2): 12.8%
- inhibition at 10 µM (CDK15/Cyclin Y; average): -1%
- inhibition at 10 µM (CDK15/Cyclin Y; experiment 1): 3%
- inhibition at 10 µM (CDK15/Cyclin Y; experiment 2): -5%
- inhibition at 10 µM (CDK16/Cyclin Y; experiment 1): 17%
- inhibition at 10 µM (CDK16/Cyclin Y; experiment 2): 12.6%
- inhibition at 10 µM (CDK10/Cyclin L2; average): 6.6%
- inhibition at 10 µM (CDK10/Cyclin L2; experiment 1): 10.2%
- inhibition at 10 µM (CDK10/Cyclin L2; experiment 2): 3.1%
- inhibition at 10 µM (CDK14/Cyclin Y; average): -2.3%
- inhibition at 10 µM (CDK14/Cyclin Y; experiment 1): -0.216%
- inhibition at 10 µM (CDK14/Cyclin Y; experiment 2): -4.4%
- inhibition at 10 µM (CDK4/Cyclin D1; average): 44%
- inhibition at 10 µM (CDK4/Cyclin D1; experiment 1): 41.2%
- inhibition at 10 µM (CDK4/Cyclin D1; experiment 2): 46.7%
- inhibition at 10 µM (CDK17/Cyclin Y; average): 19%
- inhibition at 10 µM (CDK17/Cyclin Y; experiment 1): 20.7%
- inhibition at 10 µM (CDK17/Cyclin Y; experiment 2): 17.3%
- inhibition at 10 µM (CDK6/Cyclin D1; average): 38.7%
- inhibition at 10 µM (CDK6/Cyclin D1; experiment 1): 31.9%
- inhibition at 10 µM (CDK6/Cyclin D1; experiment 2): 45.4%
- inhibition at 10 µM (CDK11B/Cyclin L2; average): 10.2%
- inhibition at 10 µM (CDK11B/Cyclin L2; experiment 1): 9.7%
- inhibition at 10 µM (CDK11B/Cyclin L2; experiment 2): 10.7%
- inhibition at 10 µM (CDK9/Cyclin K; average): 88.8%
- inhibition at 10 µM (CDK9/Cyclin K; experiment 1): 87.2%
- inhibition at 10 µM (CDK9/Cyclin K; experiment 2): 90.3%
- inhibition at 10 µM (CDK1/Cyclin E1; average): 31.6%
- inhibition at 10 µM (CDK1/Cyclin E1; experiment 1): 30.7%
- inhibition at 10 µM (CDK1/Cyclin E1; experiment 2): 32.5%
- inhibition at 10 µM (CDK18/Cyclin Y; average): 8.7%
- inhibition at 10 µM (CDK18/Cyclin Y; experiment 1): 5.1%
- inhibition at 10 µM (CDK18/Cyclin Y; experiment 2): 12.3%
- inhibition at 10 µM (CDK19/Cyclin C; average): 11.4%
- inhibition at 10 µM (CDK19/Cyclin C; experiment 1): 16.6%
- inhibition at 10 µM (CDK19/Cyclin C; experiment 2): 6.1%
- inhibition at 10 µM (CDK20/Cyclin H; experiment 1): 11.2%
- inhibition at 10 µM (CDK20/Cyclin H; experiment 2): 17.8%
- inhibition at 10 µM (CDK11A/Cyclin L2; average): 7.5%
- inhibition at 10 µM (CDK11A/Cyclin L2; experiment 1): 4.3%
- inhibition at 10 µM (CDK11A/Cyclin L2; experiment 2): 10.7%
- inhibition at 10 µM (CDK12/Cyclin K; average): 22.1%
- inhibition at 10 µM (CDK12/Cyclin K; experiment 1): 7%
- inhibition at 10 µM (CDK12/Cyclin K; experiment 2): 37.2%
- inhibition at 10 µM (CDK5/CDK5R1; average): 11.4%
- inhibition at 10 µM (CDK5/CDK5R1; experiment 1): 17.5%
- inhibition at 10 µM (CDK5/CDK5R1; experiment 2): 5.3%
- inhibition at 10 µM (CDK8/Cyclin C; average): 5.3%
- inhibition at 10 µM (CDK8/Cyclin C; experiment 1): 5.1%
- inhibition at 10 µM (CDK8/Cyclin C; experiment 2): 5.6%
- inhibition at 10 µM (CDK2/Cyclin E1; average): 18.7%
- inhibition at 10 µM (CDK2/Cyclin E1; experiment 1): 15.1%
- inhibition at 10 µM (CDK2/Cyclin E1; experiment 2): 22.2%
